# Where no end group is shown, it is not given here.
# Assays:
# [1] = tested on: HIV-1IIIB; experiment: HIV-1 antiviral assay in CEM-SS cells (MTS readout)
# [2] = tested on: hepatitis B virus (HBV) ayw strain; experiment: HBV experimental assay system (HepG2-2.2.15, TaqMan PCR of secreted HBV DNA); assay type: cell-based; settings: 10 micrograms per ml, six days, HBV DNA by TaqMan PCR
# From the text: HepG2-2.2.15 is a stable cell line containing the hepatitis B virus (HBV) ayw strain genome (ATCC Cat. No. CRL-11997). Antiviral compounds blocking any late step of viral replication such as transcription, translation, pregenome encapsidation, reverse transcription, particle assembly and release can be identified and characterized using this cell line. In this assay, an active compound will reduce the production of secreted HBV from cells, measured by utilizing real time quantitative PCR (TaqMan) assay to directly and accurately measure HBV DNA copies.
# HepG2-2.2.15 cells were plated in 96-well microtiter plates. After 16-24 hours the confluent monolayer of HepG2-2.2.15 cells was washed and the medium was replaced with complete medium containing test peptides—10 micrograms per ml—in duplicate. […] Six days following the initial administration of the peptides, the cell culture supernatants was collected, treated with pronase and DNAse and then used in a real-time quantitative TaqMan PCR assay. The PCR-amplified HBV DNA was detected in real-time by monitoring increases in fluorescence signals that result from the exonucleolytic degradation of a quenched fluorescence probe molecule that hybridizes to the amplified HBV DNA. […] Antiviral activity was calculated from the reduction in HBV DNA levels (% virus control). […]
# [3] = tested on: Streptococcus pneumoniae; experiment: Streptococcus pneumoniae growth assay; assay type: cell-based; settings: 10 micrograms per ml; 5×10^5 CFU/mL; read visually
# [4] = tested on: murine spleen cells; experiment: Th1/Th2 cytokine profiling assay (Ovalbumin-restimulated spleen cells, CBA kit); assay type: cell-based, Balb/c mice; settings: 10 micrograms per ml, Ovalbumin restimulation, 72 hours
# [5] = tested on: Primary Human endothelial cells (HUVEC); experiment: Endothelial cell migration assay; assay type: cell-based; settings: 10 micrograms per ml, 22 hours
# [6] = tested on: HCMV strain AD169; experiment: HCMV plaque formation assay in MRC-5 cells; settings: for inhibition of HCMV plaque formation as compared to the virus control: 10 micrograms per ml, 7-10 days
# [7] = tested on: HUVEC; experiment: Endothelial tube formation assay; assay type: cell-based, human; settings: 10 micrograms per ml, 20 hours
molecule,measurement,setting,value
CC(C)(C)NC(=O)[C@@H]1CN(Cc2cccnc2)CCN1C[C@@H](O)C[C@@H](Cc1ccccc1)C(=O)N[C@H]1c2ccccc2C[C@H]1O [indinavir],antiviral activity of positive control compounds (HIV-1),[1],expected levels of antiviral activity
Asp-Arg-Val-Tyr-Ile-His-Pro-Phe-OH (DRVYIHPF-OH) [Peptide 2],inhibition of HBV replication as compared to the virus control infection,[2],43.4%
same,inhibition of the growth of Streptococcus pneumoniae,[3],100%
same,change of the production of IL-5,[4],did not significantly change
same,induction of the production of IFN-γ,[4],36.4%
same,induction of the production of IL-2,[4],did not significantly change
same,induction of the production of IL-4,[4],55%
same,induction of the production of TNF-alpha,[4],did not significantly change
same,inhibition of the migration of human endothelial cells,[5],10%
same,inhibition of HCMV plaque formation as compared to the virus control,[6],did not inhibit
"Nc1nc(O)c2ncn(COC(CO)CO)c2n1 [Ganciclovir, reference compound]",antiviral activity of positive control compound (HCMV),[6]; positive control,expected levels of antiviral activity
Cc1cn([C@H]2C[C@H](N=[N+]=[N-])[C@@H](CO)O2)c(=O)[nH]c1=O [AZT],antiviral activity of positive control compounds (HIV-1),[1],expected levels of antiviral activity
Arg-Gly-Asp-Ser-Pro-Ala-Ser-Ser-Lys-Pro-OH (RGDSPASSKP-OH) [Peptide 1],inhibition of HBV replication as compared to the virus control infection,[2],57.8%
same,inhibition of the growth of Streptococcus pneumoniae,[3],100%
same,change of the production of IL-5,[4],did not significantly change
same,induction of the production of IFN-γ,[4],24.5%
same,induction of the production of IL-2,[4],134.2%
same,induction of the production of IL-4,[4],132.5%
same,induction of the production of TNF-alpha,[4],34.0%
same,inhibition of the migration of human endothelial cells,[5],2%
same,inhibition of the tube formation of human endothelial cells,[7],54%
same,inhibition of HCMV plaque formation as compared to the virus control,[6],did not inhibit

# — patent US20100197603A1, “USE OF RGDSPASSKP AND OPTIONALLY ANGIOTENSIN II AS THERAPEUTIC AGENTS IN THE TREATMENT OF EG S. PNEUMONIAE INFECTIONS” (priority 2007, published 2010)
